Experimental data published in US20220389061A1, “IMMUNOMODULATORS” (priority 2019, published 2022).
Where two headings read alike, the source gives them in different places. Starred links: 1 amine or outer side, 2 acyl side, 3 side chain; linkers in the order of their positions; H or OH if unused. Positions of bridges follow the written chain, without caps; N, C: chain ends. Non-standard residues stand in square brackets, D forms with d. Residues, ends and D or L forms follow the SMILES beside them. Groups on a side chain read outwards from the residue. *: point of attachment. Trp(1-CH2CO2Me) = COC(=O)Cn1cc(C[C@H](N)C(=O)O)c2ccccc21; Trp(1-CH2COOH) = N[C@@H](Cc1cn(CC(=O)O)c2ccccc12)C(=O)O; Benzoyl(2-(4-MeOPh)) = COc1ccc(-c2ccccc2C(=O)*)cc1; NH(benzothiophen-5-yl) = c1cc2cc(N*)ccc2s1; Benzofuran(2-CO) = O=C(c1cc2ccccc2o1)*; X65 = CC(C)(C)OC(=O)Nc1ccc(NC(=S)*)cc1; Hyp = O=C(O)[C@@H]1C[C@@H](O)CN1; X32 = c1ccc2c(c1)Cc1cc(N*)ccc1-2; X35 = Cc1n[nH]c2c(NC(=S)*)cccc12; X3 = S=C(Nc1ccc(Oc2ccccc2)cc1)*; X84 = COc1cc(NC(=S)*)cc(OC)c1OC; X30 = FC(F)(F)c1ccc(N*)c(Cl)c1; NH(3-MeOPh) = COc1cccc(N*)c1; NMeNle = CCCC[C@H](NC)C(=O)O; X59 = S=C(Nc1ccc2nsnc2c1)*; X6 = CCCCCCCOc1ccc(N*)cc1; NMeA = CN[C@@H](C)C(=O)O; Dab = NCC[C@H](N)C(=O)O; Dap = NC[C@H](N)C(=O)O; X17 = Cc1cc(C)cc(N*)c1; CO = O=C([*:1])[*:2]; NHPh = c1ccc(N*)cc1

Target: T1, PD-1/PD-L1 (Homo sapiens, UniProt Q9NZQ7)
T1 construct: TVMV protease site linker (C); made in house; host or cells: HEK293T cells
T1 sequence (Q9NZQ7 18-239): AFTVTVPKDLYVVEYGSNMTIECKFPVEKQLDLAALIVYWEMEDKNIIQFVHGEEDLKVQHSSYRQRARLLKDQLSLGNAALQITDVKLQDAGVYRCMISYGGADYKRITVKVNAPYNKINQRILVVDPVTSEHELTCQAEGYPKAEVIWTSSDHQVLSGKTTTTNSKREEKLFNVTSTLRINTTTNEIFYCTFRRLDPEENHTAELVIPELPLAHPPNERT
Assay: PD-1/PD-L1 Homogenous Time-Resolved Fluorescence (HTRF) binding assay
How it was run: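 Compounds preincubated 15 min with PD-L1-His (10 nM final), then PD-1-Ig (20 nM final) added for 15 min in dPBS with 0.1% BSA, 0.05% Tween-20. Detection by Eu-cryptate anti-Ig (1 nM) and APC anti-His (20 nM) HTRF.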

[1] = PD-L1-His 10 nM pre-incubated with inhibitor, PD-1-Ig 20 nM, read-out: HTRF IC50

| IC50 [1] | SMILES | IC50 |
| --- | --- | --- |
| – | CCCC[C@H]1C(=O)N(C)[C@@H](CCCC)C(=O)N[C@@H](CC(C)C)C(=O)N[C@H](C(=O)NCC(N)=O)CSCC(=O)N[C@@H](Cc2ccc(O)cc2)C(=O)N(C)[C@@H](C)C(=O)N[C@@H](CC(N)=O)C(=O)N2CCC[C@H]2C(=O)N[C@@H](CNC(=O)Nc2ccc3c(c2)Cc2ccccc2-3)C(=O)N[C@@H](CC(C)C)C(=O)N2C[C@H](O)C[C@H]2C(=O)N[C@@H](Cc2c[nH]c3ccccc23)C(=O)N[C@@H](CCNC(=O)Nc2ccc3c(c2)Cc2ccccc2-3)C(=O)N[C@@H](Cc2cn(CC(=O)O)c3ccccc23)C(=O)N1C [Example 2008] ({CH2CO}-Y[NMeA]NP[Dap]([CO-X32])L[Hyp]W[Dab]([CO-X32])[Trp(1-CH2COOH)][NMeNle][NMeNle]LCG-NH2; thioether N-14) | 46.7 nM |
| 11 nM | CCCC[C@H]1C(=O)N(C)[C@@H](CCCC)C(=O)N[C@@H](CC(C)C)C(=O)N[C@H](C(=O)NCC(N)=O)CSCC(=O)N[C@@H](Cc2ccc(O)cc2)C(=O)N(C)[C@@H](C)C(=O)N[C@@H](CC(N)=O)C(=O)N2CCC[C@H]2C(=O)N[C@@H](CNC(=S)Nc2ccc(Oc3ccccc3)cc2)C(=O)N[C@@H](CC(C)C)C(=O)N2C[C@H](O)C[C@H]2C(=O)N[C@@H](Cc2c[nH]c3ccccc23)C(=O)N[C@@H](CCNC(=S)Nc2ccc(Oc3ccccc3)cc2)C(=O)N[C@@H](Cc2cn(CC(=O)O)c3ccccc23)C(=O)N1C [Example 1046] ({CH2CO}-Y[NMeA]NP[Dap](X3)L[Hyp]W[Dab](X3)[Trp(1-CH2COOH)][NMeNle][NMeNle]LCG-NH2; thioether N-14) | – |
| 34 nM | CCCC[C@H]1C(=O)N(C)[C@@H](CCCC)C(=O)N[C@@H](CC(C)C)C(=O)N[C@H](C(=O)NCC(N)=O)CSCC(=O)N[C@@H](Cc2ccc(O)cc2)C(=O)N(C)[C@@H](C)C(=O)N[C@@H](CC(N)=O)C(=O)N2CCC[C@H]2C(=O)N[C@@H](CNC(=O)Nc2ccc3sccc3c2)C(=O)N[C@@H](CC(C)C)C(=O)N2C[C@H](O)C[C@H]2C(=O)N[C@@H](Cc2c[nH]c3ccccc23)C(=O)N[C@@H](CCNC(=O)Nc2ccc3sccc3c2)C(=O)N[C@@H](Cc2cn(CC(=O)OC)c3ccccc23)C(=O)N1C [Example 3057] ({CH2CO}-Y[NMeA]NP[Dap]([CO-NH(benzothiophen-5-yl)])L[Hyp]W[Dab]([CO-NH(benzothiophen-5-yl)])[Trp(1-CH2CO2Me)][NMeNle][NMeNle]LCG-NH2; thioether N-14) | – |
| 4.6 nM | CCCC[C@H]1C(=O)N(C)[C@@H](CCCC)C(=O)N[C@@H](CC(C)C)C(=O)N[C@H](C(=O)NCC(N)=O)CSCC(=O)N[C@@H](Cc2ccc(O)cc2)C(=O)N(C)[C@@H](C)C(=O)N[C@@H](CC(N)=O)C(=O)N2CCC[C@H]2C(=O)N[C@@H](CNC(=S)Nc2cccc3c(C)n[nH]c23)C(=O)N[C@@H](CC(C)C)C(=O)N2C[C@H](O)C[C@H]2C(=O)N[C@@H](Cc2c[nH]c3ccccc23)C(=O)N[C@@H](CCN)C(=O)N[C@@H](Cc2cn(CC(=O)O)c3ccccc23)C(=O)N1C [Example 3066] ({CH2CO}-Y[NMeA]NP[Dap](X35)L[Hyp]W[Dab][Trp(1-CH2COOH)][NMeNle][NMeNle]LCG-NH2; thioether N-14) | – |
| 18 nM | CCCC[C@H]1C(=O)N(C)[C@@H](CCCC)C(=O)N[C@@H](CC(C)C)C(=O)N[C@H](C(=O)NCC(N)=O)CSCC(=O)N[C@@H](Cc2ccc(O)cc2)C(=O)N(C)[C@@H](C)C(=O)N[C@@H](CC(N)=O)C(=O)N2CCC[C@H]2C(=O)N[C@@H](CNC(=O)Nc2ccc(C(F)(F)F)cc2Cl)C(=O)N[C@@H](CC(C)C)C(=O)N2C[C@H](O)C[C@H]2C(=O)N[C@@H](Cc2c[nH]c3ccccc23)C(=O)N[C@@H](CCNC(=O)Nc2ccc(C(F)(F)F)cc2Cl)C(=O)N[C@@H](Cc2cn(CC(=O)O)c3ccccc23)C(=O)N1C [Example 1116] ({CH2CO}-Y[NMeA]NP[Dap]([CO-X30])L[Hyp]W[Dab]([CO-X30])[Trp(1-CH2COOH)][NMeNle][NMeNle]LCG-NH2; thioether N-14) | – |
| 2.3 nM | CCCC[C@H]1C(=O)N(C)[C@@H](CCCC)C(=O)N[C@@H](CC(C)C)C(=O)N[C@H](C(=O)NCC(N)=O)CSCC(=O)N[C@@H](Cc2ccc(O)cc2)C(=O)N(C)[C@@H](C)C(=O)N[C@@H](CC(N)=O)C(=O)N2CCC[C@H]2C(=O)N[C@@H](CNC(=S)Nc2ccc(NC(=O)OC(C)(C)C)cc2)C(=O)N[C@@H](CC(C)C)C(=O)N2C[C@H](O)C[C@H]2C(=O)N[C@@H](Cc2c[nH]c3ccccc23)C(=O)N[C@@H](CCNC(=S)Nc2ccc(NC(=O)OC(C)(C)C)cc2)C(=O)N[C@@H](Cc2cn(CC(=O)O)c3ccccc23)C(=O)N1C [Example 1041] ({CH2CO}-Y[NMeA]NP[Dap](X65)L[Hyp]W[Dab](X65)[Trp(1-CH2COOH)][NMeNle][NMeNle]LCG-NH2; thioether N-14) | – |
| 5.3 nM | CCCC[C@H]1C(=O)N(C)[C@@H](CCCC)C(=O)N[C@@H](CC(C)C)C(=O)N[C@H](C(=O)NCC(N)=O)CSCC(=O)N[C@@H](Cc2ccc(O)cc2)C(=O)N(C)[C@@H](C)C(=O)N[C@@H](CC(N)=O)C(=O)N2CCC[C@H]2C(=O)N[C@@H](CNC(=O)c2cc3ccccc3o2)C(=O)N[C@@H](CC(C)C)C(=O)N2C[C@H](O)C[C@H]2C(=O)N[C@@H](Cc2c[nH]c3ccccc23)C(=O)N[C@@H](CCNC(=O)c2cc3ccccc3o2)C(=O)N[C@@H](Cc2cn(CC(=O)OC)c3ccccc23)C(=O)N1C [Example 3012] ({CH2CO}-Y[NMeA]NP[Dap](Benzofuran(2-CO))L[Hyp]W[Dab](Benzofuran(2-CO))[Trp(1-CH2CO2Me)][NMeNle][NMeNle]LCG-NH2; thioether N-14) | – |
| 6.4 nM | CCCC[C@H]1C(=O)N(C)[C@@H](CCCC)C(=O)N[C@@H](CC(C)C)C(=O)N[C@H](C(=O)NCC(N)=O)CSCC(=O)N[C@@H](Cc2ccc(O)cc2)C(=O)N(C)[C@@H](C)C(=O)N[C@@H](CC(N)=O)C(=O)N2CCC[C@H]2C(=O)N[C@@H](CNC(=S)Nc2ccc3nsnc3c2)C(=O)N[C@@H](CC(C)C)C(=O)N2C[C@H](O)C[C@H]2C(=O)N[C@@H](Cc2c[nH]c3ccccc23)C(=O)N[C@@H](CCNC(=S)Nc2ccc3nsnc3c2)C(=O)N[C@@H](Cc2cn(CC(=O)O)c3ccccc23)C(=O)N1C [Example 3008] ({CH2CO}-Y[NMeA]NP[Dap](X59)L[Hyp]W[Dab](X59)[Trp(1-CH2COOH)][NMeNle][NMeNle]LCG-NH2; thioether N-14) | – |
| 14 nM | CCCC[C@H]1C(=O)N(C)[C@@H](CCCC)C(=O)N[C@@H](CC(C)C)C(=O)N[C@H](C(=O)NCC(N)=O)CSCC(=O)N[C@@H](Cc2ccc(O)cc2)C(=O)N(C)[C@@H](C)C(=O)N[C@@H](CC(N)=O)C(=O)N2CCC[C@H]2C(=O)N[C@@H](CNC(=O)Nc2cc(C)cc(C)c2)C(=O)N[C@@H](CC(C)C)C(=O)N2C[C@H](O)C[C@H]2C(=O)N[C@@H](Cc2c[nH]c3ccccc23)C(=O)N[C@@H](CCNC(=O)Nc2cccc(OC)c2)C(=O)N[C@@H](Cc2cn(CC(=O)O)c3ccccc23)C(=O)N1C [Example 1121] ({CH2CO}-Y[NMeA]NP[Dap]([CO-X17])L[Hyp]W[Dab]([CO-NH(3-MeOPh)])[Trp(1-CH2COOH)][NMeNle][NMeNle]LCG-NH2; thioether N-14) | – |
| 2.8 nM | CCCC[C@H]1C(=O)N(C)[C@@H](CCCC)C(=O)N[C@@H](CC(C)C)C(=O)N[C@H](C(=O)NCC(N)=O)CSCC(=O)N[C@@H](Cc2ccc(O)cc2)C(=O)N(C)[C@@H](C)C(=O)N[C@@H](CC(N)=O)C(=O)N2CCC[C@H]2C(=O)N[C@@H](CNC(=S)Nc2cc(OC)c(OC)c(OC)c2)C(=O)N[C@@H](CC(C)C)C(=O)N2C[C@H](O)C[C@H]2C(=O)N[C@@H](Cc2c[nH]c3ccccc23)C(=O)N[C@@H](CCN)C(=O)N[C@@H](Cc2cn(CC(=O)O)c3ccccc23)C(=O)N1C [Example 1065] ({CH2CO}-Y[NMeA]NP[Dap](X84)L[Hyp]W[Dab][Trp(1-CH2COOH)][NMeNle][NMeNle]LCG-NH2; thioether N-14) | – |

| SMILES | IC50 [1] | IC50 |
| --- | --- | --- |
| CCCCCCCOc1ccc(NC(=O)NCC[C@@H]2NC(=O)[C@H](Cc3c[nH]c4ccccc34)NC(=O)[C@@H]3C[C@@H](O)CN3C(=O)[C@H](CC(C)C)NC(=O)[C@H](CNC(=O)Nc3ccc(OCCCCCCC)cc3)NC(=O)[C@@H]3CCCN3C(=O)[C@H](CC(N)=O)NC(=O)[C@H](C)N(C)C(=O)[C@H](Cc3ccc(O)cc3)NC(=O)CSC[C@@H](C(=O)NCC(N)=O)NC(=O)[C@H](CC(C)C)NC(=O)[C@H](CCCC)N(C)C(=O)[C@H](CCCC)N(C)C(=O)[C@H](Cc3cn(CC(=O)O)c4ccccc34)NC2=O)cc1 [Example 1090] ({CH2CO}-Y[NMeA]NP[Dap]([CO-X6])L[Hyp]W[Dab]([CO-X6])[Trp(1-CH2COOH)][NMeNle][NMeNle]LCG-NH2; thioether N-14) | 242 nM | – |
| CCCC[C@H]1C(=O)N(C)[C@@H](CCCC)C(=O)N[C@@H](CC(C)C)C(=O)N[C@H](C(=O)NCC(N)=O)CSCC(=O)N[C@@H](Cc2ccc(O)cc2)C(=O)N(C)[C@@H](C)C(=O)N[C@@H](CC(N)=O)C(=O)N2CCC[C@H]2C(=O)N[C@@H](CNC(=O)c2ccccc2-c2ccc(OC)cc2)C(=O)N[C@@H](CC(C)C)C(=O)N2C[C@H](O)C[C@H]2C(=O)N[C@@H](Cc2c[nH]c3ccccc23)C(=O)N[C@@H](CCN)C(=O)N[C@@H](Cc2cn(CC(=O)O)c3ccccc23)C(=O)N1C [Example 1063] ({CH2CO}-Y[NMeA]NP[Dap](Benzoyl(2-(4-MeOPh)))L[Hyp]W[Dab][Trp(1-CH2COOH)][NMeNle][NMeNle]LCG-NH2; thioether N-14) | 3.7 nM | – |
| CCCC[C@H]1C(=O)N(C)[C@@H](CCCC)C(=O)N[C@@H](CC(C)C)C(=O)N[C@H](C(=O)NCC(N)=O)CSCC(=O)N[C@@H](Cc2ccc(O)cc2)C(=O)N(C)[C@@H](C)C(=O)N[C@@H](CC(N)=O)C(=O)N2CCC[C@H]2C(=O)N[C@@H](CNC(=O)Nc2ccccc2)C(=O)N[C@@H](CC(C)C)C(=O)N2C[C@H](O)C[C@H]2C(=O)N[C@@H](Cc2c[nH]c3ccccc23)C(=O)N[C@@H](CCNC(=O)Nc2ccccc2)C(=O)N[C@@H](Cc2cn(CC(=O)O)c3ccccc23)C(=O)N1C [Example 1009] ({CH2CO}-Y[NMeA]NP[Dap]([CO-NHPh])L[Hyp]W[Dab]([CO-NHPh])[Trp(1-CH2COOH)][NMeNle][NMeNle]LCG-NH2; thioether N-14) | 6.5 nM | – |
